Measurements published in ChEMBL document CHEMBL5236652, “Neuritogenic steroid glycosides from crown-of-thorns starfish: Possible involvement of p38 mitogen-activated protein kinase and attenuation of cognitive impairment in senescence-accelerated mice (SAMP8) by peripheral administration” (Bioorg Med Chem, 2023).
The source made the active and inactive calls. The rule behind the calls is not given here.

Tests used:
Mus musculus [1] = test: Cognitive enhancing effect in aged ICR mouse assessed as improvement of spontaneous alternation behavior by analyzing entry to different arm at 10 mg/kg, sc for 2 weeks by Y-maze test; type: functional, organism-based
PC-12 [2] = test: Neuritogenic activity in rat PC-12 cells assessed as decrease in ERK phosphorylation at 40 uM and incubated for 1 to 2 hrs by Western blot analysis; type: functional, cell-based; settings: time 1-2 hrs
PC-12 [3] = test: Neuritogenic activity in rat PC-12 cells assessed as inhibition of neurite outgrowth at 40 uM incubated for 6 days in presence of K252a by microscopic analysis; type: functional, cell-based; settings: time 6.0 day
[4] = Toxicity in ICR mouse assessed as effect on body weight at 1 to 10 mg/kg, sc for 14 days; type: organism-based; settings: in vivo, 336 h, dose 1-10 mg/kg, time 14 day
PC-12 [5] = test: Neuritogenic activity in rat PC-12 cells assessed as induction of neurite outgrowth at 40 uM incubated for 6 days by microscopic analysis; type: functional
PC-12 [6] = test: Neuritogenic activity in rat PC-12 cells assessed as inhibition of neurite outgrowth at 40 uM incubated for 6 days in presence of […] by microscopic analysis; type: functional, cell-based; settings: time 6.0 day
PC-12 [7] = test: Neuritogenic activity in rat PC-12 cells assessed as induction of neurite outgrowth at 40 uM incubated for 1 to 6 days by microscopic analysis; type: functional, cell-based; settings: time 1-6 day, TDE = time-dependent effect
PC-12 [8] = test: Cytotoxicity against rat PC-12 cells assessed as reduction in cell viability upto 40 uM; type: toxicity, cell-based; settings: pc-12, 40 µM
[9] = Drug uptake in ICR mouse blood at 10 mg/kg,sc and measured upto 120 mins by LC-MS analysis; type: ADME, organism-based; settings: read-out: Drug uptake
PC-12 [10] = test: Neuritogenic activity in rat PC-12 cells assessed as inhibition of neurite outgrowth at 1 uM incubated for 6 days in presence of SB203580 by microscopic analysis; type: functional, cell-based; settings: time 6.0 day
Mus musculus [11] = test: Cognitive enhancing effect in SAMP8 mouse assessed as effect on locomotion by analyzing entry to different arm at 1 to 10 mg/kg, sc for 2 weeks by Y-maze test; type: functional, organism-based; settings: dose 1-10 mg/kg
PC-12 [12] = test: Neuritogenic activity in rat PC-12 cells assessed as inhibition of neurite outgrowth at 40 uM incubated for 6 days in presence of PD98059 by microscopic analysis; type: functional, cell-based; settings: time 6.0 day
PC-12 [13] = test: Neuritogenic activity in rat PC-12 cells assessed as effect on Ras activation at 40 uM incubated for 2 hrs by Western blot analysis; type: functional, cell-based
[14] = Drug uptake in ICR mouse brain at 10 mg/kg,sc and measured at 60 mins by LC-MS analysis; type: ADME, organism-based; settings: read-out: Drug uptake
PC-12 [15] = test: Neuritogenic activity in rat PC-12 cells overexpressing TrKA assessed as inhibition of neurite outgrowth at 40 uM incubated for 6 days by microscopic analysis; type: functional, cell-based; settings: time 6.0 day
Mus musculus [16] = test: Cognitive enhancing effect in SAMP8 mouse assessed as longer exploration time at 10 mg/kg, sc for 2 weeks by Novel object recognition test; type: functional, organism-based
[17] = Drug uptake in ICR mouse brain at 10 mg/kg,sc and measured upto 120 mins by LC-MS analysis; type: ADME, organism-based; settings: read-out: Drug uptake
PC-12 [18] = test: Neuritogenic activity in rat PC-12 cells assessed as effect on TrkA phosphorylation at 40 uM incubated for 4 hrs by Western blot analysis; type: functional, cell-based
PC-12 [19] = test: Neuritogenic activity in rat PC-12 cells assessed as induction of neurite outgrowth at 10 to 40 uM incubated for 6 days by microscopic analysis; type: functional, cell-based; settings: dose 10-40 µM, time 6.0 day
Mus musculus [20] = test: Cognitive enhancing effect in SAMP8 mouse assessed as improvement of spontaneous alternation behavior by analyzing entry to different arm at 1 to 10 mg/kg, sc for 2 weeks by Y-maze test; type: functional, organism-based; settings: dose 1-10 mg/kg
PC-12 [21] = test: Neuritogenic activity in rat PC-12 cells assessed as effect on Cdc42 activation at 40 uM incubated for 8 to 12 hrs by Western blot analysis; type: functional, cell-based; settings: time 8-12 hrs
PC-12 [22] = test: Neuritogenic activity in rat PC-12 cells assessed as increase in p38 phosphorylation at 40 uM and measured upto 24 hrs by Western blot analysis; type: functional, cell-based
[23] = Drug uptake in ICR mouse blood at 10 mg/kg,sc and measured at 60 mins by LC-MS analysis; type: ADME, organism-based; settings: read-out: Drug uptake
Mus musculus [24] = test: Cognitive enhancing effect in aged ICR mouse assessed as longer exploration time at 10 mg/kg, sc for 2 weeks by novel object recognition test; type: functional, organism-based

Compound: CO[C@H]1[C@H](O[C@@H]2C=C3[C@H](O)C[C@@]4(O)[C@@H]5[C@@H](O)[C@H](O)[C@H]([C@H](C)CC[C@H](CO[C@@H]6OC[C@@H](O)[C@H](O)[C@H]6O)C(C)C)[C@@]5(C)CC[C@@H]4[C@@]3(C)CC2)OC[C@@H](O)[C@@H]1O
- Activity (Mus musculus [1]): Active
- Activity (PC-12 [2]): Active
- Activity (PC-12 [3]): inactive
- Activity [4]: Non-Toxic
- Activity (PC-12 [5]; time 6 day): 43%
- Activity (PC-12 [6]): inactive
- Activity (PC-12 [7]): Tde
- Activity (PC-12 [8]): Non-Toxic
- concentration at 2 h [9]: 7.7 ng/mL
- Activity (PC-12 [10]): inactive
- Activity (Mus musculus [11]): inactive
- Activity (PC-12 [12]): inactive
- Activity (PC-12 [13]): inactive
- concentration at 1 h [14]: 30 ng/g
- Activity (PC-12 [15]): inactive
- Activity (Mus musculus [16]): Active
- concentration at 2 h [17]: 5 ng/g
- Activity (PC-12 [18]): inactive
- Activity (PC-12 [19]): Dose-Dependent Effect
- Activity (Mus musculus [20]): Active
- Activity (PC-12 [21]): Active
- Activity (PC-12 [22]): Active
- concentration at 1 h [23]: 2000 ng/mL
- Activity (Mus musculus [24]): Active

Compound: CO[C@@H]1[C@@H](O)[C@H](OC[C@@H](CC[C@@H](C)[C@H]2[C@@H](O)[C@H](O)[C@@H]3[C@]2(C)CC[C@H]2[C@@]3(O)C[C@@H](O)C3=C[C@@H](O[C@@H]4OC[C@@H](O)[C@H](O)[C@H]4OC)CC[C@@]32C)C(C)C)OC[C@H]1O
- Activity (PC-12 [5]; time 6 day): 43%

Compound: CO[C@H]1[C@H](O[C@@H]2C=C3[C@H](O)C[C@@]4(O)[C@@H]5[C@@H](O)[C@H](O)[C@H]([C@H](C)CC[C@H](CO)C(C)C)[C@@]5(C)CC[C@@H]4[C@@]3(C)CC2)OC[C@@H](O)[C@@H]1O
- Activity (PC-12 [5]; time 6.0 day): inactive
